Results reported in publication PMC7070709, “Design, Synthesis, and In Vitro Evaluation of Hydroxybenzimidazole-Donepezil Analogues as Multitarget-Directed Ligands for the Treatment of Alzheimer’s Disease” (Molecules, 2020).
“Also recorded” adds a separate entry of the source. Read-outs that look alike come from different tables or passages of the source.

How the values were obtained:
[1] = Cu(II) chelation by potentiometry; type: physicochemical; conditions: pH 7.4; read-out: conditional dissociation constant (K´d) for the copper complex
Description: The metal chelating ability of hybrids 7 and 12, due to the BIM bidentate unity with (N,O) coordination mode, was studied by potentiometry. Figure 3A,B show a change in the deprotonation profile of the ligand titration curves due to the presence of the metal ions. In fact, the curves for the Cu(II)/L systems lie well below that of the ligand, while for the Zn(II)/L systems stay under for a > −1 (compound 7) or a > 0 (compound 12), thus supporting the formation of 1:1 and 1:2 M/L ratio complexes with the deprotonated and mono-protonated forms of the ligand and with relative metal dependent stability order (Cu > Zn). Table 1 contains the equilibrium models obtained from the fitting analysis of the potentiometric curves by program Hyperquad. In these equilibrium models, which the coordination core of the compounds integrates the bidentate (N,O) BIM moiety, MHL and MH2L2 correspond to species with the ligand containing one protonated nitrogen atom at the piperazine moiety, ML and ML2 correspond to complexes involving the completely deprotonated form of the ligand while MH-1L2 are mixed ligand-hydroxo metal complexes.
Solutions: the aqueous copper (CuCl2, 0.015 M) and zinc (ZnCl2, 0.0156 M) stock solutions for potentiometric equilibrium studies were prepared from 1000 ppm standards (Titrisol) and their metal content was evaluated by atomic absorption. The titrant solution (0.1 M KOH) was obtained from a carbonate-free commercial concentrate (Titrisol) and standardized by potentiometric titration with potassium hydrogen phthalate. The titrant solution was discarded whenever the percentage of carbonate (Gran’s method) was about 0.5% of the total amount of base.
Measurements: compounds 7 and 12 were titrated in 50% (w/w) DMSO/H2O medium, at T = 25.0 ± 0.1 °C and ionic strength (I) 0.1 M KCl, using 0.1 M KOH as titrant. Both glass and Ag/AgCl reference electrodes were previously conditioned in DMSO/H2O mixtures with increasing amounts of DMSO and the response of the glass electrode was controlled by strong acid–strong base (HCl/KOH) calibrations with the determination of the Nernst parameters by Gran’s method. […] All titrations were performed in duplicate and under the stated experimental conditions the pKw value (13.6) was determined and subsequently used in the computations. The stepwise protonation constant of the ligand, Ki = [HiL]/([Hi–1L][H]), and the overall metal–complex stability constants, βMmHhLl = [MmHhLl]/([M]^m[H]^h[L]^l), were calculated by fitting the potentiometric titration data with Hyperquad 2008 [26]. The metal hydrolysis constants were determined under the defined experimental conditions (I = 0.1 M KCl, 50% w/w DMSO/H2O, T = 25.0 ± 0.1 °C) and the following values of stability constants were included in the fitting of experimental data towards the equilibrium models related to the Cu^2+/L and Zn^2+/L systems: log βCu2H−2 = −9.99; log βZnH−2 = −14.79, log βZnH−3 = −23.48. Species distribution curves were plotted with the Hyss program.

[2] = target: T1, AChE (type VI-S, from electric eel) (Electrophorus electricus, UniProt O42275); conditions: read-out: TcAChE Inhibition IC50; cited from earlier work
T1 construct: purchased type VI-S

Aβ1–42 [3] = target: T2, Aβ1–42 (Homo sapiens, UniProt P05067); design: method as in PMID 32171933; conditions: cited from earlier work
T2 construct: Aβ1–42 (40 μM) was incubated at 37 °C, for 24 h with or without Cu(II) (40 μM)

Aβ1–42 with Cu(II) [4] = target: T3, Aβ1–42 with Cu(II) (Homo sapiens, UniProt P05067); design: method as in PMID 32171933; conditions: copper 40 µM, cited from earlier work
T3 construct: Aβ1–42 (40 μM) was incubated at 37 °C, for 24 h with or without Cu(II) (40 μM)

[5] = 50% w/w DMSO/water, I = 0.1 M KCl, 25.0 °C; cited from earlier work
[6] = pH 7.4, CL/CM = 10, CM = 10^−6 M; cited from earlier work
[7] = pH 7.4, CL/CM = 10, CM = 10^−6 M; cited from earlier work; remark: listed apart in the source
[8] = target: T1, AChE (type VI-S, from electric eel); assay: AChE inhibition, adaptation of Ellman's method; type: biochemical; conditions: means of three independent experiments ± SD, read-out: TcAChE Inhibition IC50
Method: The inhibition of AChE by the DNP-BIM hybrids herein studied was assayed by using a variation of Ellman´s test and the IC50 values obtained are included in Table 2. […]. An adaptation of the Ellman´s method, previously described, was used to measure the acetylcholinesterase inhibitory activity. The assay solution contained 374 µL of 4-(2-hydroxyethyl)-1-piperazineethanesulfonic acid (HEPES) buffer (50 mM, pH 8.0), 476 µL of 5,5’-dithiobis-(2-nitrobenzoic acid) (DTNB, 3 mM), a variable volume (10–50 µL) of the stock solution of each compound in methanol (1 mg/mL), 25 µL of AChE (type VI-S, from electric eel) stock solution, and the necessary amount of methanol to obtain 0.925 mL of sample mixture in a 1 mL cuvette. The samples were incubated for 15 min and then 75 µL of acetylthiocholine iodide (AChI) solution (16 mM) was added. The reaction was monitored for 5 min at 405 nm. Assays were run with a blank containing all the components except AChE, which was replaced by HEPES buffer. The rates of the reaction were calculated as well as the enzyme activity. A control reaction was carried out using methanol as a sample solution and it was considered as 100% activity.
The inhibition curves were obtained by plotting the percentage of enzymatic inhibition versus inhibitor concentration and a calibration curve was got from which the linear regression parameters were obtained.

Aβ1–42 [9] = target: T2, Aβ1–42; assay: Inhibition of self-mediated Aβ1–42 aggregation (thioflavin T fluorescence); type: biochemical; conditions: inhibitor 40 µM, Aβ1–42 40 μM, 24 h, 37 °C; read-out: Aβ1–42 Aggregation Inhibition, Self-Induced
Method: (§1) The anti-amyloidogenic capacity of the compounds was also evaluated in vitro, in the absence and presence of Cu(II), based on the measurement of the fluorescence emission of Thioflavin T (ThT), a stain known by its Aβ fibril binding capacity. This binding interaction can be analyzed by fluorimetry, since the presence of ThT-fibrils increases the absorbance and the emission of the ThT dye, and it also induces red shifts on the absorbance (from 385 to 446 nm) and emission peaks (from 445 to 485 nm). All the measurements were performed after incubation (24 h, 37 °C) of the self-mediated and Cu^2+-induced Aβ aggregates in the presence/absence of the compounds under evaluation.
(§2) Herein, due to solubility problems of some compounds in the phosphate buffer (0.215 M, pH 8.0) of the working medium, the assays were carried out in the presence of 40 μM concentration of inhibitor and 20 μM in the case of compound 4, instead of 80 μM as previously reported. […] The activity dependence on ligand structural features may be mainly explained by the different ability for intercalation into the fibrils, as already assumed for other inhibitors. […] The data obtained for compounds 6 and 7 indicate that the presence of R1 = F, -NO2 substituents in the BIM have some small positive effect on the inhibition of Aβ aggregation.
(§3) The Aβ peptide was treated with 1,1,1,3,3,3-hexafluoropropan-2-ol (HFIP) and dissolved in a CH3CN/Na2CO3 (300 μM)/NaOH (250 μM) (48.3:48.3:4.3, v/v/v) mixture in order to have a stable stock solution, avoiding self-aggregation of Aβ1–42. Then, the prepared 500 μM solution was diluted at 40 μM in phosphate buffer (0.215 M, pH 8.0).
(§4) The solutions of the tested compounds were prepared in MeOH (1 mg/mL), being further diluted in phosphate buffer to a concentration of 480 μM. For copper-induced aggregation studies, a solution of CuCl2 240 μM was prepared from a stock standard solution (0.015 M). To perform the assays for the Aβ1–42 aggregation inhibition, a reported method, based on the fluorescence emission of thioflavin T (ThT), was followed. Aβ1–42 (40 μM) was incubated at 37 °C, for 24 h with or without Cu(II) (40 μM) in a phosphate buffer in presence or absence of the single ligand (40 μM and 20 μM for compound 4). Then, the samples were added to a 96-well plate with […] of 5 μM ThT in 50 mM glycine-NaOH (pH 8.5) buffer. Blank samples were prepared without the peptide for each concentration. The ThT fluorescence was measured at 446 nm (excitation) and 485 nm (emission). The inhibition percentage of aggregation was calculated by Equation (2), in which IFi and IF0 corresponded to the fluorescence intensities, in the presence and in the absence of the tested compound, subtracted of the fluorescence intensities due to the respective blanks.
(§5) The reported values were obtained as the mean ± SEM of duplicate of three different experiments.

Aβ1–42 with Cu(II) [10] = target: T3, Aβ1–42 with Cu(II); assay: Inhibition of Cu-induced Aβ1–42 aggregation (thioflavin T fluorescence); type: biochemical; conditions: inhibitor 40 µM, copper 40 µM, Aβ1–42 40 μM, 24 h, 37 °C
Method: as §1, §2, §3, §4, §5

SH-SY5Y cells = assay: Neuroprotection from Aβ42-induced toxicity (MTT); type: cell-based, human; conditions: compound 2.5 µM, 1 h pre-incubation plus 24 h co-incubation with Aβ42 1 µM
Method: Extracellular formation of senile plaques of aggregated Aβ along with the production of reactive oxygen species (ROS) are processes involved in the neurodegeneration that characterize AD [42]. […] Additionally, ROS production is also one of the hallmarks associated with AD pathogenesis.
SH-SY5Y human neuroblastoma cell line (ATCC-CRL-2266) was cultured in Dulbecco’s Modified Eagle Medium (DMEM) (Gibco-Invitrogen, Life Technologies Ltd., Liverpool, UK) supplemented with 10% of heat inactivated fetal bovine serum, 50 U/mL penicillin, and 50 μg/mL streptomycin, at 37 °C in 5% CO2. For the cell viability experiments, cells were plated with a density of 0.12 × 10^6 cells/mL. All the tested compounds (from 7 to 12) were dissolved in DMSO and aliquots were stored at −20 °C with a stock concentration of 25 mM. To choose the highest non-toxic concentration of the compounds, a concentration screening was performed (from 2.5 μM to 10 μM). For the experiments, all the compounds were added to the medium at a final concentration of 2.5 μM. […] Cells were pre-incubated for 1 h with the compounds and then incubated with Aβ1–42 or with Fe/Asc for an additional 24 h. […]
Cell viability was determined using the colorimetric 3-(4,5-dimethylthiazol-2-yl)-2,5-diphenyltetrazolium bromide (MTT) assay. […] The absorbance of the plate was measured at 570 nm. […]

T1 sequence (O42275 24-633): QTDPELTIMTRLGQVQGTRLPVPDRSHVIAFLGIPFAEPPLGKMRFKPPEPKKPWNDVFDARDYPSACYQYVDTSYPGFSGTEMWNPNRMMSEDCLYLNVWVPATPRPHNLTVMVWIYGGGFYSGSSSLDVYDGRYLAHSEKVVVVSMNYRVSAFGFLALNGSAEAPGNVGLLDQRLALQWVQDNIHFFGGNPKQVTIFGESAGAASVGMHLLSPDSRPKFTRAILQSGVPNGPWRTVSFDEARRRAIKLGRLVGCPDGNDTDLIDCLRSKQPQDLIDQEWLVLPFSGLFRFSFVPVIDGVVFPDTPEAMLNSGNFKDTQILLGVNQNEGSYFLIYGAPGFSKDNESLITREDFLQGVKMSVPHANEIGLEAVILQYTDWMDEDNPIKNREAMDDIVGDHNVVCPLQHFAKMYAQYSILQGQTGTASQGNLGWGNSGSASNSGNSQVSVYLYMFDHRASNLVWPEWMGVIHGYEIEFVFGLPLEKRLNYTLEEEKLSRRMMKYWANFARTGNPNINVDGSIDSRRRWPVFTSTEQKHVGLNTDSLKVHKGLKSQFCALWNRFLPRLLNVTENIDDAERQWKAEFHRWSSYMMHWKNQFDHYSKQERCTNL
T3 sequence (P05067 672-713): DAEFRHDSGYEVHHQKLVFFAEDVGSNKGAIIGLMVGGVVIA
T2 sequence (P05067 672-713): as above

Row | Structure (SMILES) | Kd [1] [µM] | IC50 [2] [µM] | Aβ1–42 Aggregation Inhibition, Self-Induced (Aβ1–42 [3]; footnote e) | Aβ1–42 Aggregation Inhibition, Cu-Induced (Aβ1–42 with Cu(II) [4]; footnote e) | log K1, stepwise protonation constant (011) [5] | log K2, stepwise protonation constant (021) [5] | log K3, stepwise protonation constant (031) [5] | pZn (pM = −log[M]) [6] | Aβ1–42 Aggregation Inhibition, Self-Induced (Aβ1–42 [3]; footnote d, Cinhibitor = 80 µM) | Aβ1–42 Aggregation Inhibition, Cu-Induced (Aβ1–42 with Cu(II) [4]; footnote d, Cinhibitor = 80 µM) | pCu (pM = −log[M]) [7] | IC50 [8] [µM] | inhibition at 40 µM (Aβ1–42 [9]) [%] | inhibition at 40 µM (Aβ1–42 with Cu(II) [10]) [%] | neuroprotective effect against Aβ42-induced cell toxicity (cell viability, MTT) (SH-SY5Y cells)
1 | O=C(NCC1CCN(Cc2ccccc2)CC1)c1ccc2nc(-c3ccccc3O)[nH]c2c1 [Compound 1] | 0.034 | 4.2 ± 0.8 | 48.8 ^e % | 69.0 ^e % | 8.671(1) | 7.39(1) | 3.21(1) | 6.3 | – | – | – | – | – | – | –
2 | O=C(NCCN1CCN(Cc2ccccc2)CC1)c1ccc2nc(-c3ccccc3O)[nH]c2c1 [Compound 2] | 0.024 | 6.9 ± 0.6 | – | – | 9.04(3) | 6.76(6) | 3.37(7) | 6.3 | 25.3 ^d % | 37.7 ^d % | 10.7 | – | – | – | –
3 | COc1ccc(-c2nc3ccc(C(=O)NCCN4CCN(Cc5ccccc5)CC4)cc3[nH]2)c(O)c1 [Compound 9, N-(2-(4-Benzylpiperazin-1-yl)ethyl)-2-(4-metoxy-2-hydroxyphenyl)-1H-benzo[d]imidazole-5-carboxamide] | – | – | – | – | – | – | – | – | – | – | – | 1.87 ± 0.8 | 43.7 | 66 | remarkable reduction of Aβ-induced cell toxicity; also recorded: prevented Aβ-induced cell toxicity
4 | O=C(NCCN1CCN(Cc2ccccc2F)CC1)c1ccc2nc(-c3ccccc3O)[nH]c2c1 [Compound 10, N-(2-(4-(2-Fluorobenzyl)piperazin-1-yl)ethyl)-2-(2-hydroxyphenyl)-1H-benzo[d]imidazole-6-carboxamide] | – | – | – | – | – | – | – | – | – | – | – | 4.32 ± 0.03 | 39.1 | 75.8 | remarkable reduction of Aβ-induced cell toxicity; also recorded: prevented Aβ-induced cell toxicity
